Tests used:
PC-9/GR cells [1] = experiment: CCK-8 cell viability assay, PC-9/GR (gefitinib-resistant); type: cell-based; settings: Homo sapiens, 48 h, Figure 3B, unit only in axis title Concentration (μM)
Method: The human NSCLC cell lines (A549, PC-9, and PC-9/GR) and other cell lines (16HBE and LO2) were purchased from the American Type Culture Collection (ATCC, Manassas, VA, USA). […] All cell lines were cultivated at 37°C under 5% CO2.
The Cell Counting Kit-8 assays (Beyotime, Shanghai, China) were performed to assess cell viability. […] Microplate readers (Infinite F500, Tecan, Mannedorf, Switzerland) were used to measure the absorbance (A) at 450 nm. All samples were assessed in triplicate.

A549 xenografts = A549 xenografts in BALB/c nude mice; type: in vivo
Method: The total proteins of cells and tissues were extracted with RIPA cleavage buffer containing a protease inhibitor cocktail, phenylmethylsulfonyl fluoride (PMSF, Solarbio). The cell lysates (20 μg) were run on SDS-polyacrylamide gel (6%–10%) and transferred to the polyvinylidene fluoride membrane (PVDF, Millipore, MA, USA) by electrophoresis. The membrane was blocked with 5% skim milk in TBST for 2 h, incubated overnight with the corresponding primary antibody at 4°C, and then incubated with the corresponding secondary antibody at room temperature for 2 h. The reaction products were detected by chemiluminescence by ECL Western Blotting Detection System. Finally, quantitative analysis was carried out with ImageJ software.
The heart, liver, spleen, lung, kidney, and tumor tissues were embedded in paraffin, and the sections (4 µm) were stained with hematoxylin–eosin (H&E, Solarbio) and then examined and analyzed under a Leica DM6B microscope (Leica Microsystems, Wetzlar, Germany).
The tumor section was dewaxed and repaired with antigen, 3% H2O2 was added, and then the section was sealed with 10% goat serum at room temperature for 30 min. The first antibody against Ki-67 and Notch3 (CST) was incubated overnight at 4°C, and the second antibody was incubated at room temperature for 30 min. After DAB staining, the sections were counterstained with hematoxylin for 2 min and then observed and analyzed under a Leica microscope.
The animal procedures were approved by the Ethics Committee of the Experimental Animal Center of Jiangxi University of Chinese Medicine (Nanchang, China, SCXK 2016-0006) and conducted following the Guide for the Care and Use of Laboratory Animals. Four-week-old male BALB/c nude mice (weighing 16–17 g, SPF grade) were obtained from Shanghai Shrek Experimental Animal Co., Ltd. (Shanghai, China). The xenotransplantation model was established by subcutaneous injection of A549 or PC-9/GR cells in nude mice, which were collected with PBS and mixed with an equal volume of Matrigel at a final concentration of 1 × 10^7/ml. […] Measurements of tumor size and body weight were conducted every 2 days with a vernier caliper and an electronic balance. Nodule growth was quantified by using the following formula: tumor volume (mm^3) = (short-diameter)^2 × large-diameter × π/6.

PC-9/GR cells [2] = experiment: Apoptosis by flow cytometry (Annexin V-FITC/PI), PC-9/GR; type: cell-based, human; settings: low-dose BH (4, 8 μM), gefitinib 25 μM, alone or combined
Method: After being digested with trypsin without EDTA, the cells were washed gently with culture medium and twice with cold PBS. The pellet was resuspended in 400 μl of 1× binding buffer, the resuspended cells were transferred to flow tubes, then Annexin V-FITC (5 μl) and propidium iodide (10 μl) were added, and the mixture was incubated for 15 min at room temperature in the dark. The percentage of apoptotic cells was determined by flow cytometry (Backman, CA, USA) and FlowJo V10 software.

LO2 cells = experiment: Toxicity to normal human cell line LO2 (Figure S1); type: cell-based
Method: Figure S1. The toxicity of Bruceine H (BH) and Bruceine D (BD) to 16HBE (A) and LO2 (B) cells was evaluated.

CC1=CC(=O)[C@@H](O)[C@]2(C)[C@H]3[C@@H](O)[C@H](O)[C@@]4(CO)OC[C@@]35[C@@H](C[C@@H]12)OC(=O)[C@H](O)[C@]54O [BH, Bruceine H]
IC50 (PC-9/GR cells [1]): 21.7 µM | growth of A549 xenografts (A549 xenografts; 2.5 or 5 mg/kg intragastric, 16 days): significantly inhibited | organ indexes of heart, kidney, liver, lung, spleen (A549 xenografts; A549 xenograft mice): no significant changes | body weight (A549 xenografts; A549 xenograft mice, 2.5 and 5 mg/kg): without significant changes | Notch3 expression in tumor xenografts (A549 xenografts; A549 xenografts, IHC, vs model group): decreased in a dose-dependent manner | number of Ki-67-positive cells in cancer tissues (A549 xenografts; A549 xenografts, IHC, vs vehicle): decreased | Notch3, β-catenin, and Bcl-2 protein levels in tumor tissues (A549 xenografts; A549 xenografts, Western blot): decreased | expression of FOXO3a in tumor tissues (A549 xenografts; A549 xenografts, Western blot): increased | apoptosis of PC-9/GR cells (PC-9/GR cells [2]): little effects | toxicity to LO2 cells (LO2 cells): no apparent toxicity

Reference: paper PMC9024338, “Bruceine H Mediates EGFR-TKI Drug Persistence in NSCLC by Notch3-Dependent β-Catenin Activating FOXO3a Signaling” (Frontiers in Oncology, 2022)
